# Test results from patent US20060069132A1, “Azolecarboxamide herbicides” (priority 2004, published 2006).
# Legend:
# morningglory = test: Test A pre-/postemergence herbicide test; assay type: in vivo, Ipomoea spp.
# How it was run: (§1)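 Visual injury scores on a 0–100 scale (100 = complete control) taken about ten days post-treatment in greenhouse against untreated controls; dash means no result. Treatments: preemergence soil spray and postemergence spray to runoff on one- to two-leaf plants 2 to 10 cm tall, surfactant-containing formulation.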
# velvetleaf = test: Test A pre-/postemergence herbicide test; assay type: in vivo, Abutilon theophrasti
# How it was run: as §1
# giant foxtail = test: Test C pre-/postemergence herbicide test; assay type: in vivo, Setaria faberi; settings: preemergence
# How it was run: (§2)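 Visual ratings on a 0–100 scale (100 = complete control) made versus untreated controls after 12 to 14 greenhouse days. Test chemicals, formulated in surfactant-containing non-phytotoxic solvent, applied preemergence to planted seeds or postemergence to 1- to 4-leaf plants (2 to 18 cm).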
# eastern black nightshade = test: Test C pre-/postemergence herbicide test; assay type: in vivo, Solanum ptycanthum; settings: preemergence
# Source text: (§3) Seeds of plant species selected from bermudagrass (Cynodon dactylon (L.) Pers.), Surinam grass (Urochloa decumbens (Staph) R. D. Webster, previously named Brachiaria decumbens Stapf), cocklebur (Xanthium strumarium L.), corn (Zea mays L.), large crabgrass (Digitaria sanguinalis (L.) Scop.), woolly cupgrass (Eriochloa villosa (Thunb.) Kunth), giant foxtail (Setaria faberi Herrm.), goosegrass (Eleusine indica (L.) Gaertn.), johnsongrass (Sorghum halepense (L.) Pers.), kochia (Kochia scoparia (L.) Schrad.), lambsquarters (Chenopodium album L.), morningglory (Ipomoea coccinea L.), eastern black nightshade (Solanum ptycanthum Dunal), yellow nutsedge (Cyperus esculentus L.), pigweed (Amaranthus retroflexus L.), common ragweed (Ambrosia elatior L.), soybean (Glycine max (L.) Merr.), common (oilseed) sunflower (Helianthus annuus L.) and velvetleaf (Abutilon theophrasti Medik.) were planted and treated preemergence with test chemicals formulated in a non-phytotoxic solvent mixture which included a surfactant.
# (§4) At the same time, plants selected from these crop and weed species and also winter barley (Hordeum vulgare L.), blackgrass (Alopecurus myosuroides Huds.), canarygrass (Phalaris minor Retz.), chickweed (Stellaria media (L.) Vill.), downy bromegrass (Bromus tectorum L.), green foxtail (Setaria viridis (L.) Beauv.), Italian ryegrass (Lolium multiflorum Lam.), wheat (Triticum aestivum L.), wild oat (Avenafatua L.) and windgrass (Apera spica-venti (L.) Beauv.) were treated with postemergence applications of some of the test chemicals formulated in the same manner. Plants ranged in height from 2 to 18 cm (1- to 4-leaf stage) for postemergence treatments. Plant species in the flooded paddy test consisted of rice (Oryza sativa), smallflower umbrella sedge (Cyperus difformis L.), ducksalad (Heteranthera limosa (Sw.) Willd.) and barnyardgrass (Echinochloa crus-galli (L.) Beauv.) grown to the 2-leaf stage for testing. Treated plants and controls were maintained in a greenhouse for 12 to 14 days, after which time all species were compared to controls and visually evaluated. Plant response ratings, summarized in Table C, are based on a scale of 0 to 100 where 0 is no effect and 100 is complete control. A dash (-) response means no test result.
# common ragweed = test: Test C pre-/postemergence herbicide test; assay type: in vivo, Ambrosia elatior; set-up: key to Plant response rating, Ragweed: 0 = no effect, 100 = complete control; settings: preemergence
# How it was run: as §2
# [1] = test system: common (oilseed) sunflower; test: Test C pre-/postemergence herbicide test; assay type: in vivo, Helianthus annuus; settings: preemergence
# Source text: as §3, §4
# [2] = Postemergence, 500 g ai/ha, 0 to 100 scale, 0 no effect, 100 complete control
# [3] = Postemergence, 2000 g ai/ha, 0 to 100 scale, 0 no effect, 100 complete control
# [4] = Preemergence, 500 g ai/ha, visual rating, 0 to 100 scale (0 no effect, 100 complete control)
# [5] = Preemergence, 2000 g ai/ha, 0 to 100 scale, 0 no effect, 100 complete control
# [6] = 125 g ai/ha, scale 0 (no effect) to 100 (complete control), visual, 12 to 14 days
# [7] = 250 g ai/ha, scale 0 to 100 (0 no effect, 100 complete control), visual, 12 to 14 days
# [8] = Preemergence, 2000 g ai/ha, visual rating, 0 to 100 scale (0 no effect, 100 complete control)
# [9] = preemergence, 500 g ai/ha, visual injury, 0 to 100 scale (0 no effect, 100 complete control)
# [10] = 500 g ai/ha, scale 0 to 100 (0 no effect, 100 complete control), visual, 12 to 14 days
compound,measurement,setting,value
CCCCn1nc(C(C)(C)C)cc1C(=O)Nc1cccc(C(=O)NCC)c1 [Compound 41],"Plant response rating, Morningglory",morningglory; [2],10
same,"Plant response rating, Morningglory",morningglory; [3],10
same,Morningglory plant response rating,morningglory; [4],20
same,Morningglory plant response rating,morningglory; [5],45
same,"Plant response rating, Velvetleaf",velvetleaf; [2],25
same,"Plant response rating, Velvetleaf",velvetleaf; [3],25
same,Velvetleaf plant response rating,velvetleaf; [4],25
same,Velvetleaf plant response rating,velvetleaf; [5],40
same,"Plant response rating, Foxtail, Giant","giant foxtail; 31 g ai/ha, scale 0 to 100",0
same,"Plant response rating (0 = no effect, 100 = complete control), Foxtail, Giant",giant foxtail; 62 g ai/ha,20
same,"Plant response rating, Foxtail, Giant",giant foxtail; [6],20
same,"Plant response rating, Foxtail, Giant",giant foxtail; [7],30
same,"Plant response rating, Nightshade","eastern black nightshade; 31 g ai/ha, scale 0 to 100",0
same,"Plant response rating (0 = no effect, 100 = complete control), Nightshade",eastern black nightshade; 62 g ai/ha,0
same,"Plant response rating, Nightshade",eastern black nightshade; [6],10
same,"Plant response rating, Nightshade",eastern black nightshade; [7],90
same,"Plant response rating, Ragweed","common ragweed; 31 g ai/ha, scale 0 to 100",0
same,"Plant response rating (0 = no effect, 100 = complete control), Ragweed",common ragweed; 62 g ai/ha,0
same,"Plant response rating, Ragweed",common ragweed; [6],0
same,"Plant response rating, Ragweed",common ragweed; [7],10
same,"Plant response rating, Sunflower","[1]; 31 g ai/ha, scale 0 to 100",0
same,"Plant response rating (0 = no effect, 100 = complete control), Sunflower",[1]; 62 g ai/ha,0
same,"Plant response rating, Sunflower",[1]; [6],0
same,"Plant response rating, Sunflower",[1]; [7],0
CCc1nn(C(C)(C)C)nc1C(=O)Nc1cccc(C(=O)NC2CC2)c1 [Compound 417],Morningglory plant response rating,morningglory; [2],70
same,"Plant response rating, Morningglory",morningglory; [3],85
same,Morningglory plant response rating,morningglory; [8],80
same,Morningglory plant response rating,morningglory; [9],20
same,Velvetleaf plant response rating,velvetleaf; [2],60
same,"Plant response rating, Velvetleaf",velvetleaf; [3],90
same,Velvetleaf plant response rating,velvetleaf; [8],70
same,Velvetleaf plant response rating,velvetleaf; [9],55
same,"Plant response rating, Foxtail, Giant","giant foxtail; 62 g ai/ha, scale 0 to 100",65
same,"Plant response rating (0 = no effect, 100 = complete control), Foxtail, Giant",giant foxtail; 125 g ai/ha,90
same,"Plant response rating, Foxtail, Giant","giant foxtail; 250 g ai/ha, scale 0-100",95
same,"Plant response rating, Foxtail, Giant",giant foxtail; [10],100
same,"Plant response rating, Nightshade","eastern black nightshade; 62 g ai/ha, scale 0 to 100",55
same,"Plant response rating (0 = no effect, 100 = complete control), Nightshade",eastern black nightshade; 125 g ai/ha,60
same,"Plant response rating, Nightshade",eastern black nightshade; [10],95
same,"Plant response rating, Ragweed","common ragweed; 62 g ai/ha, scale 0 to 100",0
same,"Plant response rating (0 = no effect, 100 = complete control), Ragweed",common ragweed; 125 g ai/ha,20
same,"Plant response rating, Ragweed",common ragweed; [10],90
same,"Plant response rating, Sunflower","[1]; 62 g ai/ha, scale 0 to 100",0
same,"Plant response rating (0 = no effect, 100 = complete control), Sunflower",[1]; 125 g ai/ha,0
same,"Plant response rating, Sunflower",[1]; [10],0
CCN(CC)C(=O)c1cccc(NC(=O)c2nn(C(C)(C)C)nc2C)c1 [Compound 418],"Plant response rating, Foxtail, Giant","giant foxtail; 62 g ai/ha, scale 0 to 100",65
same,"Plant response rating (0 = no effect, 100 = complete control), Foxtail, Giant",giant foxtail; 125 g ai/ha,95
same,"Plant response rating, Foxtail, Giant","giant foxtail; 250 g ai/ha, scale 0-100",100
same,"Plant response rating, Foxtail, Giant",giant foxtail; [10],100
same,"Plant response rating, Nightshade","eastern black nightshade; 62 g ai/ha, scale 0 to 100",95
same,"Plant response rating (0 = no effect, 100 = complete control), Nightshade",eastern black nightshade; 125 g ai/ha,95
same,"Plant response rating, Nightshade",eastern black nightshade; [10],100
same,"Plant response rating, Ragweed","common ragweed; 62 g ai/ha, scale 0 to 100",50
same,"Plant response rating (0 = no effect, 100 = complete control), Ragweed",common ragweed; 125 g ai/ha,70
same,"Plant response rating, Ragweed",common ragweed; [10],100
same,"Plant response rating, Sunflower","[1]; 62 g ai/ha, scale 0 to 100",0
same,"Plant response rating (0 = no effect, 100 = complete control), Sunflower",[1]; 125 g ai/ha,0
same,"Plant response rating, Sunflower",[1]; [10],0
